This is an account of results in ChEMBL document CHEMBL1201862, “PubChem BioAssay data set” (2004).

Some test systems named below: HCC 2998; ACHN; SNB-75; OVCAR-5; SF-295; K562; OVCAR-3; MDA-N; COLO 205; LOX IMVI; HCT-15; A549; NCI-H522; OVCAR-8; IGROV-1; EKVX; SF-539; NCI-H23; SK-MEL-5; PC-3.
Holding throughout (experiment): NCI anticancer screen, dose series, 48 h

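Five concentrations, 48 hours, 96-well plates. Here, GI50 denotes the concentration required for 50% inhibition of growth.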 Calls of active or inactive are those of the source. Rule as the data show it: active = GI50 up to about 1.1 µM and inactive = higher.

As for `CN1C(=O)c2c(c3c4ccccc4n(C4OC(CO)C(O)C(O)C4O)c3c3[nH]c4ccccc4c23)C1=O` (stereo not given), the GI50 is 2.07 µM (inactive) with HCC 2998; 2.14 µM (inactive) with ACHN; 3.95 µM (inactive) with SNB-75; 3.22 µM (inactive) in the assay with OVCAR-5; 3.63 µM (inactive) with SF-295; 0.736 µM (active) in the assay with K562. Also, the GI50 in the assay on OVCAR-3 is 2.02 µM (inactive); in the assay on MDA-N, 2.14 µM (inactive); with COLO 205, 0.944 µM (active); with LOX IMVI, 1.2 µM (inactive); with HCT-15 it was 4.82 µM; with A549 it was 11.8 µM (inactive). Moreover, the GI50 in the assay on NCI-H522 was 0.321 µM (active); in the assay on OVCAR-8, 1.42 µM (inactive); in the assay on IGROV-1 it was 0.9 µM (active); in the assay with EKVX it was 3.02 µM (inactive); with SF-539, 1.36 µM (inactive); with NCI-H23, 2.59 µM (inactive). For the same compound, the GI50 with SK-MEL-5 is 1.36 µM (inactive); in the assay with PC-3, 1.92 µM (inactive).
Take `COC(=O)CCc1ccc2c(c1)CC1(C2)Cc2ccc(CCC(=O)OC)cc2C1`: the GI50 with HCC 2998 is > 100 µM (inactive); in the assay with ACHN it was > 100 µM (inactive); with SNB-75, < 0.01 µM (active); with OVCAR-5, > 100 µM (inactive); in the assay with SF-295, 78 µM (inactive); in the assay on K562 it was > 100 µM (inactive). Also, the GI50 in the assay with OVCAR-3 is 77.4 µM (inactive); in the assay with MDA-N it was > 100 µM (inactive); in the assay on COLO 205 it was 57.5 µM (inactive); with LOX IMVI it was 26.6 µM (inactive); in the assay on HCT-15 it was over 100 µM; with A549, > 100 µM (inactive). Further, the GI50 was 34.5 µM (inactive) with NCI-H522; 60.1 µM (inactive) with OVCAR-8; 75.2 µM (inactive) with IGROV-1; > 100 µM (inactive) with EKVX; > 100 µM (inactive) in the assay on SF-539; 44.7 µM (inactive) in the assay on NCI-H23. Besides, the figures for the GI50 with SK-MEL-5 and in the assay on PC-3 were 24 µM (inactive) and > 100 µM (inactive), respectively.
As for `COC(=O)c1ccccc1/C=C1\Cc2c(ccc3c2CCC3)C1=O`, the GI50 was > 100 µM (inactive) in the assay on HCC 2998; > 100 µM (inactive) in the assay on ACHN; 39.1 µM (inactive) in the assay on SNB-75; > 100 µM (inactive) with OVCAR-5; > 100 µM (inactive) in the assay on SF-295; > 100 µM (inactive) in the assay with K562. In addition, the GI50 was > 100 µM (inactive) in the assay with OVCAR-3; > 100 µM (inactive) in the assay with MDA-N; > 100 µM (inactive) with COLO 205; > 100 µM (inactive) in the assay with LOX IMVI; over 100 µM in the assay with HCT-15; > 100 µM (inactive) in the assay on A549. For the same compound, the GI50 was > 100 µM (inactive) with NCI-H522; 78.9 µM (inactive) with OVCAR-8; > 100 µM (inactive) in the assay on IGROV-1; > 100 µM (inactive) in the assay on EKVX; > 100 µM (inactive) in the assay with SF-539; > 100 µM (inactive) in the assay on NCI-H23. Moreover, the GI50 in the assay with SK-MEL-5 and in the assay on PC-3 was > 100 µM (inactive) each time.
In the case of `CSCCCNC(=O)c1csc(-c2csc(CCNC(=O)CNC(=O)CNC(=O)OC(C)(C)C)n2)n1`, the GI50 in the assay with HCC 2998 was > 100 µM (inactive); in the assay with ACHN it was > 100 µM (inactive); with SNB-75, 37.2 µM (inactive); in the assay with OVCAR-5 it was > 100 µM (inactive); in the assay with SF-295, > 100 µM (inactive); in the assay on K562, > 100 µM (inactive). Further, the GI50 in the assay on OVCAR-3 is > 100 µM (inactive); in the assay with MDA-N it was > 100 µM (inactive); in the assay on COLO 205, > 100 µM (inactive); with LOX IMVI, > 100 µM (inactive); with HCT-15, over 100 µM; in the assay with A549 it was > 100 µM (inactive). The GI50 in the assay on NCI-H522, with OVCAR-8, in the assay on IGROV-1, with EKVX, with SF-539 and in the assay with NCI-H23 was > 100 µM (inactive) throughout. The GI50 in the assay with SK-MEL-5 and in the assay on PC-3 was > 100 µM (inactive) in each case.
As to `CC(OCc1ccccc1)C(NC(=O)C1CSSCC(NC(=O)C(Cc2ccccc2)NC(=O)OCc2ccccc2)C(=O)NC(Cc2ccccc2)C(=O)NC(Cc2cn(C=O)c3ccccc23)C(=O)NC(CCCCNC(=O)OCc2ccccc2)C(=O)NC(C(C)OCc2ccccc2)C(=O)N1)C(N)=O` (stereo not given), the GI50 in the assay on HCC 2998 is 7.43 µM (inactive); in the assay on ACHN, > 59.6 µM (inactive); in the assay with SNB-75, 22.1 µM (inactive); in the assay with OVCAR-5, 45 µM (inactive); in the assay with SF-295 it was > 85.7 µM (inactive); with K562, 16.4 µM (inactive). Also, the GI50 with OVCAR-3 was 14 µM (inactive); in the assay with MDA-N, 24.2 µM (inactive); with COLO 205, 3.03 µM (inactive); in the assay on LOX IMVI, 20 µM (inactive); with HCT-15, 32 µM; with A549, > 79.3 µM (inactive). Moreover, the GI50 in the assay on NCI-H522 was 17.4 µM (inactive); in the assay on OVCAR-8, 75.2 µM (inactive); with IGROV-1 it was 22.6 µM (inactive); in the assay with EKVX, > 83.2 µM (inactive); in the assay on SF-539, > 100 µM (inactive); in the assay on NCI-H23, 33.4 µM (inactive). For the same compound, the GI50 in the assay on SK-MEL-5 is 24.5 µM (inactive); in the assay on PC-3, 19.1 µM (inactive).
For the compound `NC(=O)N(O)c1cccc(Br)c1`, the GI50 in the assay on HCC 2998, in the assay with ACHN, in the assay on SNB-75, with OVCAR-5, in the assay with SF-295 and with K562 was > 100 µM (inactive) in each case. Moreover, the GI50 in the assay with OVCAR-3 was > 100 µM (inactive); in the assay with MDA-N it was > 100 µM (inactive); in the assay on COLO 205, > 100 µM (inactive); in the assay with LOX IMVI it was > 100 µM (inactive); with HCT-15, over 100 µM; in the assay with A549, > 100 µM (inactive). Moreover, the GI50 in the assay with NCI-H522, in the assay with OVCAR-8, in the assay on IGROV-1, with EKVX, with SF-539 and with NCI-H23 was > 100 µM (inactive) throughout. Moreover, the GI50 in the assay with SK-MEL-5 and with PC-3 was > 100 µM (inactive) throughout.
As to `COc1ccc(OC(=O)N2C/C(=C\c3ccccc3)C(=O)/C(=C/c3ccccc3)C2)cc1`, the GI50 in the assay with HCC 2998 is 2.9 µM (inactive); in the assay with ACHN, 3.94 µM (inactive); in the assay on SNB-75 it was 7.83 µM (inactive); in the assay on OVCAR-5, 7.64 µM (inactive); in the assay on SF-295, 2.99 µM (inactive); in the assay with K562, 0.824 µM (active). The GI50 in the assay on OVCAR-3 is 6.85 µM (inactive); with MDA-N, 1.76 µM (inactive); in the assay on COLO 205 it was 7.74 µM (inactive); with LOX IMVI it was 0.962 µM (active); with HCT-15, 2.79 µM; in the assay on A549, 15.2 µM (inactive). For the same compound, the GI50 was 2.05 µM (inactive) in the assay on NCI-H522; 2.47 µM (inactive) in the assay with OVCAR-8; 5.6 µM (inactive) in the assay on IGROV-1; 16.6 µM (inactive) in the assay with EKVX; 7.82 µM (inactive) with SF-539; 5.05 µM (inactive) with NCI-H23. Also, the GI50 in the assay with SK-MEL-5 was 3.09 µM (inactive); with PC-3, 3.66 µM (inactive).
For `Nc1ccc2c3[nH]c4cc(N)ccc4cc-3nc2c1`, the GI50 in the assay with HCC 2998 was 0.09 µM (active); with ACHN, 0.0236 µM (active); with SNB-75, 0.12 µM (active); in the assay with OVCAR-5 it was 0.291 µM (active); with SF-295 it was 0.265 µM (active); in the assay with K562 it was 5.07 µM (inactive). Moreover, the GI50 with OVCAR-3 was 0.349 µM (active); with MDA-N it was 0.194 µM (active); in the assay on COLO 205, 0.18 µM (active); in the assay on LOX IMVI, 0.199 µM (active); in the assay with HCT-15, 0.266 µM; in the assay on A549, 0.286 µM (active). The GI50 was 22.6 µM (inactive) in the assay with NCI-H522; 0.151 µM (active) in the assay with OVCAR-8; 2.16 µM (inactive) in the assay on IGROV-1; 0.267 µM (active) with EKVX; 0.231 µM (active) in the assay with SF-539; 0.202 µM (active) in the assay with NCI-H23. Also, the GI50 is 0.237 µM (active) with SK-MEL-5 and 0.224 µM (active) in the assay on PC-3.
`COC(c1ccc(C(C)(C)C)cc1)(c1ccc(C(C)(C)C)cc1)c1ccc(C(C)(C)C)cc1`: the GI50 with HCC 2998, with ACHN, with SNB-75, with OVCAR-5, with SF-295 and in the assay on K562 was > 100 µM (inactive) throughout. The GI50 was > 100 µM (inactive) in the assay on OVCAR-3; > 100 µM (inactive) with MDA-N; > 100 µM (inactive) in the assay with COLO 205; > 100 µM (inactive) in the assay with LOX IMVI; over 100 µM in the assay with HCT-15; > 100 µM (inactive) in the assay on A549. The GI50 in the assay on NCI-H522, in the assay with OVCAR-8, with IGROV-1, with EKVX, in the assay with SF-539 and with NCI-H23 was > 100 µM (inactive) throughout. Further, the GI50 in the assay on SK-MEL-5 and with PC-3 was > 100 µM (inactive) throughout.
For `Brc1ccc2[nH]cc(-c3csc(-c4c[nH]c5ccc(Br)cc45)n3)c2c1`, the GI50 was 1.86 µM (inactive) in the assay with HCC 2998; 1.93 µM (inactive) with ACHN; 2.39 µM (inactive) with SNB-75; 1.97 µM (inactive) in the assay with OVCAR-5; 2.48 µM (inactive) in the assay with SF-295; 1.77 µM (inactive) in the assay on K562. For the same compound, the GI50 in the assay with OVCAR-3 is 2.45 µM (inactive); with MDA-N it was 2.25 µM (inactive); in the assay on COLO 205, 1.61 µM (inactive); in the assay on LOX IMVI it was 1.69 µM (inactive); in the assay with HCT-15, 2.02 µM; with A549, 2.69 µM (inactive). Besides, the GI50 in the assay with NCI-H522 is 1.66 µM (inactive); in the assay with OVCAR-8 it was 2.45 µM (inactive); in the assay with IGROV-1 it was 1.58 µM (inactive); with EKVX, 1.48 µM (inactive); in the assay on SF-539, 1.56 µM (inactive); in the assay with NCI-H23, 2.27 µM (inactive). The GI50 in the assay with SK-MEL-5 is 1.64 µM (inactive); with PC-3 it was 1.97 µM (inactive).
